Test results: patent publication US6737383B1, “Herbicidal oxadiazolidines” (priority 1999, dated 2004)

What was measured:
[1] = tested on: velvetleaf; test: Test B pre/postemergence velvetleaf; type: in vivo, Abutilon theophrasti
How it was run: (§1)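 Response is a visual 0-to-10 score relative to untreated plants, where 0 means no effect and 10 means complete control, taken twelve to sixteen days after application. Treatments went onto soil at planting and onto foliage of 1- to 4-leaf plants, using a surfactant-containing non-phytotoxic solvent.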

[2] = tested on: corn; test: Test B pre/postemergence corn; type: in vivo, Zea mays
How it was run: as §1

[3] = tested on: rice; test: Test B flood test rice; type: in vivo, Oryza sativa
How it was run: (§2)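 Flood test on plants grown to the 2-leaf stage; treated plants kept in greenhouse twelve to sixteen days, then visually rated against controls on a 0 (no effect) to 10 (complete control) scale.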

[4] = tested on: purple nutsedge; test: Test B pre/postemergence purple nutsedge; type: in vivo, Cyperus rotundus
How it was run: as §1

[5] = tested on: cocklebur; test: Test B pre/postemergence cocklebur; type: in vivo, Xanthium strumarium
How it was run: as §1

[6] = tested on: blackgrass; test: Test B pre/postemergence blackgrass; type: in vivo, Alopecurus myosuroides
How it was run: as §1

[7] = tested on: surinam grass; test: Test B pre/postemergence surinam grass; type: in vivo, Brachiaria decumbens
How it was run: as §1

[8] = tested on: duck salad; test: Test B flood test duck salad; type: in vivo, Heteranthera limosa
How it was run: as §2

[9] = tested on: wheat; test: Test B pre/postemergence wheat; type: in vivo, Triticum aestivum
How it was run: as §1

[10] = tested on: giant foxtail; test: Test B pre/postemergence giant foxtail; type: in vivo, Setaria faberii
How it was run: as §1

[11] = tested on: wild oat; test: Test B pre/postemergence wild oat; type: in vivo, Avena fatua
How it was run: as §1

[12] = tested on: crabgrass; test: Test B pre/postemergence crabgrass; type: in vivo, Digitaria sanguinalis
How it was run: as §1

[13] = tested on: soybean; test: Test B pre/postemergence soybean; type: in vivo, Glycine max
How it was run: as §1

[14] = tested on: pigweed; test: Test B pre/postemergence pigweed; type: in vivo, Amaranthus retroflexus
How it was run: as §1

[15] = tested on: bedstraw; test: Test B pre/postemergence bedstraw; type: in vivo, Galium aparine
How it was run: as §1

[16] = tested on: sugar beet; test: Test B pre/postemergence sugar beet; type: in vivo, Beta vulgaris
How it was run: as §1

[17] = Postemergence, Rate 62 g/ha, scale 0 to 10, 0 is no effect, 10 is complete control
[18] = Postemergence, Rate 125 g/ha, scale of 0 to 10 where 0 is no effect and 10 is complete control
[19] = Postemergence, Rate 250 g/ha, scale of 0 to 10, 0 is no effect, 10 is complete control
[20] = Preemergence, Rate 62 g/ha, scale 0 to 10 (0 no effect, 10 complete control)
[21] = Preemergence, Rate 125 g/ha, scale of 0 to 10 where 0 is no effect and 10 is complete control
[22] = Preemergence, Rate 250 g/ha, scale 0 to 10 (0 no effect, 10 complete control)
[23] = Preemergence, Rate 500 g/ha, scale of 0 to 10 where 0 is no effect and 10 is complete control
[24] = Postemergence, Rate 500 g/ha, scale of 0 to 10 where 0 is no effect and 10 is complete control
[25] = Rate 62 g/ha, flood test species, Pre-emergence, visual evaluation after twelve to sixteen days
[26] = Rate 125 g/ha, under heading Pre-emergence, flood test species, visual evaluation after twelve to sixteen days
[27] = Rate 250 g/ha, Pre-emergence (flood test species), scale 0 to 10, 0 is no effect, 10 is complete control
[28] = Rate 500 g/ha, Pre-emergence section of Table B, 0 to 10 scale (0 no effect, 10 complete control)

CCOC(Cn1c(=O)on(C(=O)N(c2ccc(F)cc2F)C(C)C)c1=O)OCC [Compound 630]
Plant response rating, Velvetleaf [1, 17]: 0
Plant response rating, Velvetleaf [1, 18]: 4
Velvetleaf plant response rating [1, 19]: 4
Velvetleaf plant response rating [1, 20]: 0
Velvetleaf plant response rating [1, 21]: 1
Plant response rating, Velvetleaf [1, 22]: 6
Plant response rating, Velvetleaf [1, 23]: 7
Plant response rating, Corn [2, 17]: 0
Plant response rating, Corn [2, 18]: 0
Corn plant response rating [2, 19]: 2
Plant response rating, Corn [2, 24]: 5
Corn plant response rating [2, 20]: 0
Corn plant response rating [2, 21]: 0
Plant response rating, Corn [2, 22]: 3
Plant response rating, Corn [2, 23]: 5
Plant response rating, Rice (0 to 10 scale, 0 is no effect, 10 is complete control) [3, 25]: 0
Rice plant response rating (0 to 10 scale, 0 is no effect, 10 is complete control) [3, 26]: 0
Rice plant response rating [3, 27]: 0
Rice plant response rating [3, 28]: 0
Plant response rating, Nutsedge [4, 17]: 0
Plant response rating, Nutsedge [4, 18]: 0
Plant response rating, Nutsedge [4, 24]: 0
Nutsedge plant response rating [4, 20]: 0
Nutsedge plant response rating [4, 21]: 0
Plant response rating, Nutsedge [4, 22]: 0
Plant response rating, Nutsedge [4, 23]: 3
Plant response rating, Cocklebur [5, 17]: 0
Plant response rating, Cocklebur [5, 18]: 0
Cocklebur plant response rating [5, 19]: 0
Plant response rating, Cocklebur [5, 24]: 0
Cocklebur plant response rating [5, 20]: 0
Cocklebur plant response rating [5, 21]: 0
Plant response rating, Cocklebur [5, 23]: 0
Plant response rating, Blackgrass [6, 17]: 0
Plant response rating, Blackgrass [6, 18]: 0
Blackgrass plant response rating [6, 19]: 3
Plant response rating, Blackgrass [6, 24]: 9
Blackgrass plant response rating [6, 20]: 5
Blackgrass plant response rating [6, 21]: 8
Plant response rating, Blackgrass [6, 22]: 8
Plant response rating, Blackgrass [6, 23]: 10
Plant response rating, B. signalgrass [7, 17]: 0
Plant response rating, B. signalgrass [7, 18]: 0
B. signalgrass plant response rating [7, 19]: 1
Plant response rating, B. signalgrass [7, 24]: 3
B. signalgrass plant response rating [7, 20]: 0
B. signalgrass plant response rating [7, 21]: 3
Plant response rating, B. signalgrass [7, 22]: 7
Plant response rating, B. signalgrass [7, 23]: 8
Plant response rating, Ducksalad (0 to 10 scale, 0 is no effect, 10 is complete control) [8, 25]: 0
Ducksalad plant response rating (0 to 10 scale, 0 is no effect, 10 is complete control) [8, 26]: 0
Ducksalad plant response rating [8, 27]: 0
Ducksalad plant response rating [8, 28]: 0
Plant response rating, Wheat [9, 17]: 0
Plant response rating, Wheat [9, 18]: 0
Wheat plant response rating [9, 19]: 0
Wheat plant response rating [9, 20]: 0
Wheat plant response rating [9, 21]: 0
Plant response rating, Wheat [9, 22]: 3
Plant response rating, Wheat [9, 23]: 8
Plant response rating, Giant foxtail [10, 17]: 2
Plant response rating, Giant foxtail [10, 18]: 7
Giant foxtail plant response rating [10, 19]: 8
Plant response rating, Giant foxtail [10, 24]: 9
Giant foxtail plant response rating [10, 20]: 9
Giant foxtail plant response rating [10, 21]: 10
Plant response rating, Giant foxtail [10, 22]: 10
Plant response rating, Giant foxtail [10, 23]: 10
Plant response rating, Wild oats [11, 17]: 0
Plant response rating, Wild oats [11, 18]: 0
Wild oats plant response rating [11, 19]: 0
Wild oats plant response rating [11, 20]: 0
Wild oats plant response rating [11, 21]: 3
Plant response rating, Wild oats [11, 22]: 8
Plant response rating, Wild oats [11, 23]: 8
Plant response rating, Crabgrass [12, 17]: 1
Plant response rating, Crabgrass [12, 18]: 5
Crabgrass plant response rating [12, 19]: 8
Crabgrass plant response rating [12, 20]: 7
Crabgrass plant response rating [12, 21]: 8
Plant response rating, Crabgrass [12, 22]: 9
Plant response rating, Crabgrass [12, 23]: 9
Plant response rating, Soybean [13, 17]: 4
Soybean plant response rating [13, 19]: 5
Soybean plant response rating [13, 20]: 0
Soybean plant response rating [13, 21]: 0
Plant response rating, Soybean [13, 22]: 0
Plant response rating, Soybean [13, 23]: 3
Plant response rating, Redroot pigweed [14, 17]: 0
Plant response rating, Redroot pigweed [14, 18]: 0
Redroot pigweed plant response rating [14, 19]: 1
Redroot pigweed plant response rating [14, 20]: 2
Redroot pigweed plant response rating [14, 21]: 9
Plant response rating, Redroot pigweed [14, 22]: 10
Plant response rating, Redroot pigweed [14, 23]: 10
Plant response rating, Bedstraw [15, 17]: 0
Bedstraw plant response rating [15, 20]: 0
Bedstraw plant response rating [15, 21]: 0
Plant response rating, Bedstraw [15, 22]: 0
Plant response rating, Bedstraw [15, 23]: 7
Plant response rating, Sugarbeets [16, 17]: 0
Plant response rating, Sugarbeets [16, 18]: 0
Sugarbeets plant response rating [16, 19]: 0
Sugarbeets plant response rating [16, 20]: 0
Sugarbeets plant response rating [16, 21]: 4
Plant response rating, Sugarbeets [16, 22]: 4
Plant response rating, Sugarbeets [16, 23]: 7
